Values after ≈ are worked out from the molar mass of the structure shown.
What was measured:
Assay type in all cases: cell-based
S. aureus 209p JC-1 = assay: MIC against standard strains (Table 1), S. aureus 209p JC-1; conditions: Staphylococcus aureus, Muller-Hinton agar, overnight 37° C., read-out: MIC (minimum growth inhibitory concentration)
Protocol: (§1) The minimum growth inhibitory concentration (MIC, μg/ml) of the compounds for each of the 25 standard laboratory strains (standard strains) shown in Table 1 was determined in accordance with the standard method of the Japan Chemotherapical Society (Chemotherapy, 29, 76-79 (1981) under "Re-revision of the measuring methods of minimum growth inhibitory concentration (MIC)").
(§2) That is, by using each test strain cultured overnight at 37° C. in a Muller-Hinton broth, there was prepared a bacterial solution with a cell density of 1×10^6 CFU/ml in the same broth. The bacterial solution was inoculated into the Muller-Hinton agar media each containing respectively one test agent (i.e., compound) and, after overnight incubation at 37° C., the minimum concentration that inhibited growth of the bacteria was determined and expressed as MIC.
(§3) Staphylococcus aureus 167 and Staphylococcus aureus 195 used in the test were MRSA. CTM (cefotiam) and FMOX (flomoxef) were used as the control agents.

S. aureus Smith = assay: MIC against standard strains (Table 1), S. aureus Smith; conditions: Staphylococcus aureus, Muller-Hinton agar, overnight 37° C., read-out: MIC (minimum growth inhibitory concentration)
Protocol: as §1, §2, §3

S. aureus 167 = assay: MIC against standard strains (Table 1), S. aureus 167 (MRSA); conditions: Staphylococcus aureus, Muller-Hinton agar, overnight 37° C., read-out: MIC (minimum growth inhibitory concentration)
Protocol: as §1, §2, §3

S. aureus 195 = assay: MIC against standard strains (Table 1), S. aureus 195 (MRSA); conditions: Staphylococcus aureus, Muller-Hinton agar, overnight 37° C., read-out: MIC (minimum growth inhibitory concentration)
Protocol: as §1, §2, §3

S. epidemidis IAM 1296 = assay: MIC against standard strains (Table 1), S. epidemidis IAM 1296; conditions: Muller-Hinton agar, overnight 37° C., read-out: MIC (minimum growth inhibitory concentration)
Protocol: as §1, §2, §3

M. luteus ATCC 9341 = assay: MIC against standard strains (Table 1), M. luteus ATCC 9341; conditions: Micrococcus luteus, ATCC9341, Muller-Hinton agar, overnight 37° C., read-out: MIC (minimum growth inhibitory concentration)
Protocol: as §1, §2, §3

B. subtilis ATCC 6633 = assay: MIC against standard strains (Table 1), B. subtilis ATCC 6633; conditions: Bacillus subtilis, ATCC6633, Muller-Hinton agar, overnight 37° C., read-out: MIC (minimum growth inhibitory concentration)
Protocol: as §1, §2, §3

E. coli JC-2 = assay: MIC against standard strains (Table 1), E. coli JC-2; conditions: Escherichia coli, JC2, Muller-Hinton agar, overnight 37° C., read-out: MIC (minimum growth inhibitory concentration)
Protocol: as §1, §2, §3

E. coli CSH2(RK1) = assay: MIC against standard strains (Table 1), E. coli CSH2(RK1); conditions: Escherichia coli, read-out: MIC (minimum growth inhibitory concentration)
Protocol: as §1, §2, §3

E. coli CSH2(RE45) = assay: MIC against standard strains (Table 1), E. coli CSH2(RE45); conditions: Escherichia coli, read-out: MIC (minimum growth inhibitory concentration)
Protocol: as §1, §2, §3

K. pneuminiae IFO 3317 = assay: MIC against standard strains (Table 1), K. pneuminiae IFO 3317; conditions: Muller-Hinton agar, overnight 37° C., read-out: MIC (minimum growth inhibitory concentration)
Protocol: as §1, §2, §3

K. pneuminiae No. 42 = assay: MIC against standard strains (Table 1), K. pneuminiae No. 42; conditions: Muller-Hinton agar, overnight 37° C., read-out: MIC (minimum growth inhibitory concentration)
Protocol: as §1, §2, §3

P. mirabilis IFO 3849 = assay: MIC against standard strains (Table 1), P. mirabilis IFO 3849; conditions: Proteus mirabilis, IFO3849, Muller-Hinton agar, overnight 37° C., read-out: MIC (minimum growth inhibitory concentration)
Protocol: as §1, §2, §3

P. vulugaris OX-19 = assay: MIC against standard strains (Table 1), P. vulugaris OX-19; conditions: Muller-Hinton agar, overnight 37° C., read-out: MIC (minimum growth inhibitory concentration)
Protocol: as §1, §2, §3

M. morganii IFO 3848 = assay: MIC against standard strains (Table 1), M. morganii IFO 3848; conditions: Morganella morganii, IFO3848, Muller-Hinton agar, overnight 37° C., read-out: MIC (minimum growth inhibitory concentration)
Protocol: as §1, §2, §3

S. marcescens IAM 1184 = assay: MIC against standard strains (Table 1), S. marcescens IAM 1184; conditions: Serratia marcescens, IAM1184, Muller-Hinton agar, overnight 37° C., read-out: MIC (minimum growth inhibitory concentration)
Protocol: as §1, §2, §3

S. marcescens No. 16-2 = assay: MIC against standard strains (Table 1), S. marcescens No. 16-2; conditions: Serratia marcescens, NO.162, Muller-Hinton agar, overnight 37° C., read-out: MIC (minimum growth inhibitory concentration)
Protocol: as §1, §2, §3

E. cloacae ATCC 13407 = assay: MIC against standard strains (Table 1), E. cloacae ATCC 13407; conditions: Enterobacter cloacae, ATCC13407, Muller-Hinton agar, overnight 37° C., read-out: MIC (minimum growth inhibitory concentration)
Protocol: as §1, §2, §3

E. cloacae Nek39 = assay: MIC against standard strains (Table 1), E. cloacae Nek39; conditions: Enterobacter cloacae, Muller-Hinton agar, overnight 37° C., read-out: MIC (minimum growth inhibitory concentration)
Protocol: as §1, §2, §3

C. freundii ATCC 8090 = assay: MIC against standard strains (Table 1), C. freundii ATCC 8090; conditions: Citrobacter freundii, ATCC8090, Muller-Hinton agar, overnight 37° C., read-out: MIC (minimum growth inhibitory concentration)
Protocol: as §1, §2, §3

P. aeruginosa NCTC 10490 = assay: MIC against standard strains (Table 1), P. aeruginosa NCTC 10490; conditions: Pseudomonas aeruginosa, NCTC10490, Muller-Hinton agar, overnight 37° C., read-out: MIC (minimum growth inhibitory concentration)
Protocol: as §1, §2, §3

P. aeruginosa AKR17 = assay: MIC against standard strains (Table 1), P. aeruginosa AKR17; conditions: Pseudomonas aeruginosa, Muller-Hinton agar, overnight 37° C., read-out: MIC (minimum growth inhibitory concentration)
Protocol: as §1, §2, §3

P. cepacia CN 9113 = assay: MIC against standard strains (Table 1), P. cepacia CN 9113; conditions: Burkholderia cepacia, CN9113, Muller-Hinton agar, overnight 37° C., read-out: MIC (minimum growth inhibitory concentration)
Protocol: as §1, §2, §3

A. faecalis ATCC 3750 = assay: MIC against standard strains (Table 1), A. faecalis ATCC 3750; conditions: Alcaligenes faecalis, ATCC3750, Muller-Hinton agar, overnight 37° C., read-out: MIC (minimum growth inhibitory concentration)
Protocol: as §1, §2, §3

A. calcoaceticos T59 = assay: MIC against standard strains (Table 1), A. calcoaceticos T59; conditions: Muller-Hinton agar, overnight 37° C., read-out: MIC (minimum growth inhibitory concentration)
Protocol: as §1, §2, §3

clinically isolated MRSA = assay: Antibacterial potency against clinically isolated MRSA (47 strains); conditions: Staphylococcus aureus; for MIC50: concentration inhibiting growth of 50% of 47 clinically isolated MRSA strains; for MIC90: concentration inhibiting growth of 90% of 47 clinically isolated MRSA strains
Protocol: A test on the antibacterial potency against clinically isolated MRSA was conducted in the following way.
That is, using 47 strains of clinically isolated MRSA, MIC was determined for each of the test strains in accordance with the standard method of the Japan Chemotherapical Society as in Test Example 1, and the minimum growth inhibitory concentration which inhibited growth of 50% of the strains tested was expressed as MIC50 (μg/ml), and the minimum growth inhibitory concentration which inhibited growth of 90% of the strains tested was expressed as MIC90 (μg/ml).
In this test, FMOX was used as the control agent.

| Compound | MIC (S. aureus 209p JC-1) | MIC (S. aureus Smith) | MIC (S. aureus 195) | MIC (S. epidemidis IAM 1296) | MIC (M. luteus ATCC 9341) | MIC (B. subtilis ATCC 6633) | MIC (E. coli JC-2) | MIC (E. coli CSH2(RK1)) | MIC (E. coli CSH2(RE45)) | MIC (K. pneuminiae IFO 3317) | MIC (K. pneuminiae No. 42) | MIC (P. mirabilis IFO 3849) | MIC (P. vulugaris OX-19) | MIC (M. morganii IFO 3848) | MIC (S. marcescens IAM 1184) | MIC (S. marcescens No. 16-2) | MIC (E. cloacae ATCC 13407) | MIC (E. cloacae Nek39) | MIC (C. freundii ATCC 8090) | MIC (P. aeruginosa NCTC 10490) | further results |
| --- | --- | --- | --- | --- | --- | --- | --- | --- | --- | --- | --- | --- | --- | --- | --- | --- | --- | --- | --- | --- | --- |
| NC(=O)Nc1ccc[n+](C/C=C/C2=C(C(=O)[O-])N3C(=O)[C@@H](NC(=O)/C(=N\O)c4csc(N)n4)[C@H]3SC2)c1 [Compound 13, 7β-[2-(2-aminothiazol-4-yl)-2-syn-hydroxyiminoacetamido]-3-[(E)-3-(3-ureidopyridinio) -1-propenyl]-3-cephem-4-carboxylate] | 0.1 µg/mL (≈ 0.184 µM) | 0.2 µg/mL (≈ 0.367 µM) | 1.56 µg/mL (≈ 2.86 µM) | 0.025 µg/mL (≈ 0.0459 µM) | 0.05 µg/mL (≈ 0.0918 µM) | 0.2 µg/mL (≈ 0.367 µM) | 0.025 µg/mL (≈ 0.0459 µM) | 0.05 µg/mL (≈ 0.0918 µM) | 0.05 µg/mL (≈ 0.0918 µM) | 0.025 µg/mL (≈ 0.0459 µM) | 0.05 µg/mL (≈ 0.0918 µM) | 0.05 µg/mL (≈ 0.0918 µM) | 0.05 µg/mL (≈ 0.0918 µM) | 0.025 µg/mL (≈ 0.0459 µM) | 0.05 µg/mL (≈ 0.0918 µM) | 6.25 µg/mL (≈ 11.5 µM) | 0.1 µg/mL (≈ 0.184 µM) | 6.25 µg/mL (≈ 11.5 µM) | 0.025 µg/mL (≈ 0.0459 µM) | 1.56 µg/mL (≈ 2.86 µM) | MIC (S. aureus 167): 12.5 µg/mL (≈ 23 µM); MIC (P. aeruginosa AKR17): > 100 µg/mL; MIC (P. cepacia CN 9113): > 100 µg/mL; MIC (A. faecalis ATCC 3750): 0.78 µg/mL (≈ 1.43 µM); MIC (A. calcoaceticos T59): 3.13 µg/mL (≈ 5.75 µM); MIC50 (clinically isolated MRSA): 0.83 µg/mL (≈ 1.52 µM); MIC90 (clinically isolated MRSA): 5.08 µg/mL (≈ 9.33 µM) |
| CO[C@@]1(NC(=O)CSC(F)F)C(=O)N2C(C(=O)O)=C(CSc3nnnn3CCO)CO[C@@H]21 [FMOX, flomoxef, reference compound] | 0.39 µg/mL (≈ 0.786 µM) | 0.39 µg/mL (≈ 0.786 µM) | 3.13 µg/mL (≈ 6.3 µM) | 0.2 µg/mL (≈ 0.403 µM) | 0.1 µg/mL (≈ 0.201 µM) | 0.2 µg/mL (≈ 0.403 µM) | 0.1 µg/mL (≈ 0.201 µM) | 0.1 µg/mL (≈ 0.201 µM) | 0.1 µg/mL (≈ 0.201 µM) | 0.05 µg/mL (≈ 0.101 µM) | 0.1 µg/mL (≈ 0.201 µM) | 0.2 µg/mL (≈ 0.403 µM) | 0.39 µg/mL (≈ 0.786 µM) | 0.39 µg/mL (≈ 0.786 µM) | 0.2 µg/mL (≈ 0.403 µM) | 100 µg/mL (≈ 201 µM) | 100 µg/mL (≈ 201 µM) | 100 µg/mL (≈ 201 µM) | 0.2 µg/mL (≈ 0.403 µM) | > 100 µg/mL | MIC (P. aeruginosa AKR17): > 100 µg/mL; MIC (P. cepacia CN 9113): 100 µg/mL (≈ 201 µM); MIC (A. faecalis ATCC 3750): 0.1 µg/mL (≈ 0.201 µM); MIC (A. calcoaceticos T59): 100 µg/mL (≈ 201 µM); MIC50 (clinically isolated MRSA): 5.13 µg/mL (≈ 10.3 µM); MIC90 (clinically isolated MRSA): 32.1 µg/mL (≈ 64.6 µM) |
| CN(C)CCn1nnnc1SCC1=C(C(=O)O)N2C(=O)[C@@H](NC(=O)Cc3csc(N)n3)[C@H]2SC1 [CTM, cefotiam, reference compound] | 0.78 µg/mL (≈ 1.48 µM) | 0.78 µg/mL (≈ 1.48 µM) | > 100 µg/mL | 0.39 µg/mL (≈ 0.742 µM) | 0.39 µg/mL (≈ 0.742 µM) | 0.39 µg/mL (≈ 0.742 µM) | 0.2 µg/mL (≈ 0.38 µM) | 0.2 µg/mL (≈ 0.38 µM) | 0.39 µg/mL (≈ 0.742 µM) | 0.2 µg/mL (≈ 0.38 µM) | 0.39 µg/mL (≈ 0.742 µM) | 0.39 µg/mL (≈ 0.742 µM) | 0.39 µg/mL (≈ 0.742 µM) | 0.2 µg/mL (≈ 0.38 µM) | 3.13 µg/mL (≈ 5.95 µM) | > 100 µg/mL | > 100 µg/mL | > 100 µg/mL | 0.78 µg/mL (≈ 1.48 µM) | 100 µg/mL (≈ 190 µM) | MIC (S. aureus 167): > 100 µg/mL; MIC (P. aeruginosa AKR17): > 100 µg/mL; MIC (P. cepacia CN 9113): > 100 µg/mL; MIC (A. faecalis ATCC 3750): 3.13 µg/mL (≈ 5.95 µM); MIC (A. calcoaceticos T59): > 100 µg/mL |
